Results taken from patent US6479499B1.
Values after ≈ are worked out from the molar mass of the structure shown. Read-outs that look alike come from different tables or passages of the source. Each block holds one compound with its values, some of them ahead of it.

Key:
[1] = tested on: ileocecal carcinoma (HCT-8); assay: In vitro cytotoxicity, HCT-8; conditions: Homo sapiens; for IC50: HCT-8, 96 h, read-out: ED50 HCT-8
[2] = tested on: epidermoid carcinoma of the nasopharynx (KB); assay: In vitro cytotoxicity, KB; conditions: Homo sapiens; for IC50: 96 h, read-out: ED50 KB
prostate cancer (PC3) = assay: In vitro cytotoxicity, PC3; conditions: Homo sapiens; for IC50: 96 h, read-out: ED50 PC3; for inhibition at 20 µg/mL: read-out: Inhibition at highest test concentration (in brackets), PC3
glioblastoma (U-87-MG) = assay: In vitro cytotoxicity, U-87-MG; conditions: Homo sapiens; for IC50: 96 h, read-out: ED50 U-87-MG; for inhibition at 20 µg/mL: read-out: Inhibition at highest test concentration (in brackets), U-87-MG
lung carcinoma (A-549) = assay: In vitro cytotoxicity, A-549; conditions: Homo sapiens; for IC50: A549, 96 h, read-out: ED50 A-549
melanoma (SKMEL-2) = assay: In vitro cytotoxicity, SKMEL-2; conditions: for IC50 / inhibition at 20 µg/mL: Homo sapiens; for IC50: SK-MEL-2, 96 h, read-out: ED50 SKMEL-2; for inhibition at 20 µg/mL: SK-MEL-2, read-out: Inhibition at highest test concentration (in brackets), SKMEL-2
bone (HOS) = assay: In vitro cytotoxicity, HOS; conditions: Homo sapiens; for IC50: 96 h, read-out: ED50 HOS; for inhibition at 20 µg/mL: read-out: Inhibition at highest test concentration (in brackets), HOS
[3] = tested on: P-gp-expressing epidermoid carcinoma of the nasopharynx (KB-VIN); assay: In vitro cytotoxicity, KB-VIN; conditions: Homo sapiens, KBVIN, 96 h, read-out: ED50 KB-VIN
bovine brain tubulin = assay: Tubulin polymerization assay (antimicrotubule assay); conditions: read-out: ITP (inhibition of tubulin polymerization) IC50; tubulin […] (12 μM), 26° C., 20 min
breast cancer (MCF-7) = assay: In vitro cytotoxicity, MCF-7; conditions: Homo sapiens; for IC50: MCF7, 96 h, read-out: ED50 MCF-7; for inhibition at 20 µg/mL: MCF7, read-out: Inhibition at highest test concentration (in brackets), MCF-7
[4] = tested on: human ovarian cancer (1A9); assay: In vitro cytotoxicity, 1A9; conditions: 96 h, read-out: ED50 1A9
[5] = tested on: ten human tumor cell lines; assay: In vitro cytotoxicity, statements on the panel of tumor cell lines
[6] = tested on: platelet aggregation induced by arachidonic acid (AA); assay: Antiplatelet assay, arachidonic acid-induced aggregation; type: cell-based, rabbit; conditions: for IC50: Oryctolagus cuniculus, Platelet; for IC50 / Percent aggregation, AA: AA 100 μM
Protocol: (§1) c. Antiplatelet assay. Blood, collected from the marginal ear vein of rabbits was mixed with EDTA to a final concentration of 6 mM and centrifuged at 90 g for 10 mm at room temperature to obtain platelet-rich plasma. The latter was further centrifuged at 500 g for 10 mm and the platelets were washed with Tyrode's solution without EDTA. After centrifugation at the same conditions, the platelets were suspended in Tyrode's solution with the following compositions (mM): NaCl (136.8), KCl (2.8), NaNCO3(11.9), MgCl2(1.1), NaH2PO4(0.33), CaCl2(1.0), and glucose (11.2). Platelet numbers were determined with a Coulter Counter (Model ZM) and adjusted to 4.5×10^8 platelets/ml.
(§2) Aggregation was measured by the turbidimetric method [O'brien, J. R. J. Clin. Pathol. 1962, 15,452] with a dual-channel Lumi aggregometer (Model 1020, Payton, Canada). All glass ware was siliconized. Test compounds were added one minute before the addition of the aggregation inducer and the platelet suspension was stirred at 900 rpm. The percentage of aggregation was calculated as previously described [Teng, C. M.; Chen, W. Y.; Ko, W. C.; Ouyang, C. Biochem. Biophys. Acta. 1987, 924, 375].

[7] = tested on: platelet aggregation induced by collagen; assay: Antiplatelet assay, collagen-induced aggregation; type: cell-based, rabbit
Protocol: as §1, §2

[8] = tested on: platelet aggregation induced by platelet-activating factor (PAF); assay: Antiplatelet assay, PAF-induced aggregation; type: cell-based, rabbit; conditions: for Percent aggregation, PAF: PAF 2 ng/ml
Protocol: as §1, §2

[9] = tested on: platelet aggregation induced by thrombin; assay: Antiplatelet assay, thrombin-induced aggregation; type: cell-based, rabbit; conditions: for Percent aggregation, thrombin: thrombin 0.1 U/ml
Protocol: as §1, §2

Structure (SMILES): COc1cc(OC)cc(C2NC(=O)c3ccccc3N2)c1 (racemic) [Compound 67, 2,3-Dihydro-2-(3′,5′-dimethoxyphenyl)-4-quinazolinone]
IC50 [1]: 3 µg/mL (≈ 10.6 µM)
IC50 [2]: 4.7 µg/mL (≈ 16.5 µM)
IC50 (prostate cancer (PC3)): > 20 µg/mL
inhibition at 20 µg/mL (prostate cancer (PC3)): 44%
IC50 (glioblastoma (U-87-MG)): > 20 µg/mL
inhibition at 20 µg/mL (glioblastoma (U-87-MG)): 37%
IC50 (lung carcinoma (A-549)): 5 µg/mL (≈ 17.6 µM)
IC50 (melanoma (SKMEL-2)): 4.4 µg/mL (≈ 15.5 µM)
IC50 (bone (HOS)): > 20 µg/mL
inhibition at 20 µg/mL (bone (HOS)): 41%
IC50 [3]: 1.6 µg/mL (≈ 5.63 µM)
IC50 (bovine brain tubulin): 12 ± 3 µM
IC50 (breast cancer (MCF-7)): > 20 µg/mL
inhibition at 20 µg/mL (breast cancer (MCF-7)): 49%
IC50 [4]: 1.92 µg/mL (≈ 6.75 µM)

Structure (SMILES): COc1cccc(C2NC(=O)c3cc(Cl)ccc3N2)c1 (racemic) [Compound 68, 2,3-Dihydro-2-(3′-methoxyphenyl)-6-chloro-4-quinazolinone]
IC50 [1]: 0.48 µg/mL (≈ 1.66 µM)
IC50 [2]: 0.95 µg/mL (≈ 3.29 µM)
IC50 (prostate cancer (PC3)): 2.5 µg/mL (≈ 8.66 µM)
IC50 (glioblastoma (U-87-MG)): > 20 µg/mL
inhibition at 20 µg/mL (glioblastoma (U-87-MG)): 37%
IC50 (lung carcinoma (A-549)): 0.6 µg/mL (≈ 2.08 µM)
IC50 (melanoma (SKMEL-2)): < 2.5 µg/mL
Inhibition value of plateau-dose response (in brackets), SKMEL-2 (melanoma (SKMEL-2); plateau-dose response, inhibition plateaus over broad dose range): 56%
IC50 (bone (HOS)): 20 µg/mL (≈ 69.3 µM)
IC50 [3]: 0.42 µg/mL (≈ 1.45 µM)
IC50 (bovine brain tubulin): 1.5 ± 0.01 µM
IC50 (breast cancer (MCF-7)): 16 µg/mL (≈ 55.4 µM)
IC50 [4]: 0.27 µg/mL (≈ 0.935 µM)
ED50, times less than that of 61 [5]: about 5 times

Continued, in another order:

IC50 (bovine brain tubulin): 5.6 ± 1 µM
Structure (SMILES): COc1cccc(C2NC(=O)c3ccccc3N2)c1 (racemic) [Compound 61, 2,3-Dihydro-2-(3′-methoxyphenyl)-4-quinazolinone]
IC50 [1]: 1.5 µg/mL (≈ 5.9 µM)
IC50 [2]: 3 µg/mL (≈ 11.8 µM)
IC50 (prostate cancer (PC3)): > 20 µg/mL
inhibition at 20 µg/mL (prostate cancer (PC3)): 43%
IC50 (glioblastoma (U-87-MG)): > 20 µg/mL
inhibition at 20 µg/mL (glioblastoma (U-87-MG)): 35%
IC50 (lung carcinoma (A-549)): 3 µg/mL (≈ 11.8 µM)
IC50 (melanoma (SKMEL-2)): > 20 µg/mL
inhibition at 20 µg/mL (melanoma (SKMEL-2)): 49%
IC50 (bone (HOS)): > 20 µg/mL
inhibition at 20 µg/mL (bone (HOS)): 42%
IC50 [3]: 1.2 µg/mL (≈ 4.72 µM)
IC50 (breast cancer (MCF-7)): > 20 µg/mL
inhibition at 20 µg/mL (breast cancer (MCF-7)): 48%
IC50 [4]: 1 µg/mL (≈ 3.93 µM)
Times more active than 2′-methoxy (60) ([5]; more sensitive cell lines): about 15 times
Times more active than 4′-methoxy (62) ([5]; more sensitive cell lines): ~20 times

IC50 (bovine brain tubulin): 32 ± 4 µM
Structure (SMILES): COc1ccc(OC)c(C2NC(=O)c3ccccc3N2)c1 (racemic) [Compound 65, 2,3-Dihydro-2-(2′,5′-dimethoxyphenyl)-4-quinazolinone]
IC50 [1]: > 20 µg/mL
inhibition at 20 µg/mL ([1]; HCT-8, read-out: Inhibition at highest test concentration (in brackets), HCT-8): 32%
IC50 [2]: > 20 µg/mL
inhibition at 20 µg/mL ([2]; read-out: Inhibition at highest test concentration (in brackets), KB): 40%
IC50 (prostate cancer (PC3)): > 20 µg/mL
inhibition at 20 µg/mL (prostate cancer (PC3)): 22%
IC50 (glioblastoma (U-87-MG)): > 20 µg/mL
inhibition at 20 µg/mL (glioblastoma (U-87-MG)): 5%
IC50 (lung carcinoma (A-549)): > 20 µg/mL
inhibition at 20 µg/mL (lung carcinoma (A-549); A549, read-out: Inhibition at highest test concentration (in brackets), A-549): 42%
IC50 (melanoma (SKMEL-2)): > 20 µg/mL
inhibition at 20 µg/mL (melanoma (SKMEL-2)): 44%
IC50 (bone (HOS)): > 20 µg/mL
inhibition at 20 µg/mL (bone (HOS)): 40%
IC50 [3]: 8.4 µg/mL (≈ 29.5 µM)
IC50 (breast cancer (MCF-7)): > 20 µg/mL
inhibition at 20 µg/mL (breast cancer (MCF-7)): 42%
IC50 [4]: 10 µg/mL (≈ 35.2 µM)

IC50 ([6]; 37° C., 1 min preincubation, read-out: IC50, platelet aggregation induced by arachidonic acid (in vitro) (Table 6)): 1.6 µM
IC50 ([6]; read-out: IC50, AA-induced platelet aggregation (Table 5)): 1.6 µM
IC50 ([7]; Oryctolagus cuniculus, Platelet, collagen 10 μg/ml, read-out: IC50, collagen-induced platelet aggregation (Table 5)): 9.2 µM
Structure (SMILES): CCOc1nc(-c2ccccc2)nc2ccccc12 [Compound 70, 4-Ethoxy-2-phenylquinazoline]
Inhibition of AA-induced platelet aggregation in words ([6]; Table 5): relatively stronger inhibitors
Percent aggregation, AA ([6]; compound 0.1 μg/ml): 85.5 ± 2.0(5) %
Percent aggregation, AA ([6]; compound 0.2 μg/ml): 76.9 ± 5.4(5) %
Percent aggregation, AA ([6]; compound 0.5 μg/ml): 33.8 ± 13.4(5) %
Percent aggregation, AA ([6]; compound 1 μg/ml): 0.0 ± 0.0(5) %
Percent aggregation, AA ([6]; compound 100 μg/ml): 0.0 ± 0.0(5) %
Inhibition of collagen-induced platelet aggregation in words ([7]; Table 5): relatively stronger inhibitors
Percent aggregation, collagen ([7]; compound 0.1 μg/ml, collagen 10 μg/ml): 86.4 ± 2.9(4) %
Percent aggregation, collagen ([7]; compound 0.2 μg/ml, collagen 10 μg/ml): 78.5 ± 4.7(4) %
Percent aggregation, collagen ([7]; compound 0.5 μg/ml, collagen 10 μg/ml): 63.9 ± 7.4(4) %
Percent aggregation, collagen ([7]; compound 1 μg/ml, collagen 10 μg/ml): 47.1 ± 6.6(4) %
Percent aggregation, collagen ([7]; compound 2 μg/ml, collagen 10 μg/ml): 35.0 ± 10.3(4) %
Percent aggregation, collagen ([7]; compound 5 μg/ml, collagen 10 μg/ml): 30.1 ± 9.0(4) %
Percent aggregation, collagen ([7]; compound 10 μg/ml, collagen 10 μg/ml): 19.3 ± 9.8(4) %
Percent aggregation, collagen ([7]; compound 20 μg/ml, collagen 10 μg/ml): 10.3 ± 6.0(4) %
Percent aggregation, collagen ([7]; compound 50 μg/ml, collagen 10 μg/ml): 0.0 ± 0.0(4) %
Percent aggregation, collagen ([7]; compound 100 μg/ml, collagen 10 μg/ml): 0.0 ± 0.0(4) %
Inhibition of PAF-induced platelet aggregation in words ([8]; Table 5): poor inhibitors
Percent aggregation, PAF ([8]; compound 20 μg/ml): 88.8 ± 1.0(4) %
Percent aggregation, PAF ([8]; compound 50 μg/ml): 19.8 ± 7.0(4) %
Percent aggregation, PAF ([8]; compound 100 μg/ml): 2.1 ± 1.8(4) %
Inhibition of thrombin-induced platelet aggregation in words ([9]; Table 5): poor inhibitors
Percent aggregation, thrombin ([9]; compound 20 μg/ml): 91.5 ± 1.2(4) %
Percent aggregation, thrombin ([9]; compound 50 μg/ml): 75.1 ± 7.3(4) %
Percent aggregation, thrombin ([9]; compound 100 μg/ml, 37° C., 1 min preincubation): 11.7 ± 6.5(4) %
